Assay results as given in patent publication US4232121A, “Process for selecting methine dyes which inhibit cell growth” (Eastman Kodak Company, priority 1978, dated 1980).
Like-named read-outs stand apart in the source and are kept apart here.

Columns and labels:
[1] = test system: Bacillus pumilus strain K-1; assay: Inhibition of bacterial growth, filter paper on inoculated agar plates; format: cell-based; settings: for zone of inhibition at 100 µM / zone of inhibition at 1000 µM: read-out: Diameter of Inhibition
Protocol: Nutrient broth was prepared by mixing 8 grams of BACTO dehydrated nutrient broth per liter of distilled water. […] Samples of the nutrient broth were then inoculated with Bacillus pumilus strain K-1 culture. […]
Nutrient agar was prepared by mixing 23 grams of BACTO nutrient agar per liter of distilled water. The nutrient agar was sterilized in the same way as the nutrient broth. After it has cooled to about 45° C. 250 ml of the nutrient agar solution was aeseptically inoculated with 5 ml of the Bacillus pumilus, K-1 culture prepared in (A), above. Plates of the inoculated nutrient agar were then poured and allowed to harden.
[…] To minimize possible photocatalyzed reactions of the dyes, all preparations were performed under yellow lights and all incubations were performed in the dark.
Schleider and Schuell #740-E filter paper (12.7 mm diameter) was dipped in the dye solution, touched to the side of the beaker to removed excess dye, and placed in the center of the inoculated agar plates (prepared in (B) above). […] The plates were then examined to determine if bacterial growth had been affected by the dye-containing filter paper. […]
Control plates were prepared in which the filter paper contained methanol or a 0.2 molar aqueous solution of phenol. […]

Sea Urchin Eggs = assay: Inhibition of cell division in fertilized sea urchin eggs; format: cell-based; settings: arbitrary scale 0 to 5, 5 most active; dye 10^-5 to 10^-6 molar, 60 minutes after fertilization
Protocol: To suspensions in filtered sea water of fertilized sea urchin eggs there was added, three minutes after fertilization, methanolic solutions of the dyes in an amount sufficient to yield a final concentration of dye of between 10^-5 and 10^-6 molar. The final concentration of methanol was, at a maximum 1×10^-4 molar. The eggs were visually observed at 60 minutes after fertilization to determine if cell division and the formation of mitotic apparatus had been inhibited. A rating was assigned based on the concentration of dye required to inhibit cell division and synthesis of DNA.

Bacillus pumilus (K-1) = test system: Bacillus pumilus (K-1)
Protocol: This can be accomplished by contacting a given concentration of the dye with the cells, removing the cells from the dye solution and then comparing the optical density (at λmax) of the remaining dye solution with a control containing the original concentration of the dye. The percentage decrease in optical density indicates the percentage of dye which has been bound to the cells.
The culture was collected by centrifugation at 5,000×g. for 10 minutes, and the resultant pellet was washed several times in cold 0.05 M potassium phosphate buffer, pH 7.0. The pellet was resuspended in the buffer solution to a final optical density of 1.0 at 620 nm as measured with a Bausch and Lomb Spectronic 20.
One-tenth ml of dye solution (1 mg/ml in methanol) was added to a tube containing 5 ml of cell suspension described above and a control tube containing 0.05 M potassium phosphate buffer, pH 7.0. All tubes were well agitated using a Vari-Whirl Mixer (Will Scientific Co.) and then centrifuged at 10,000×g. for 10 minutes.
The percent binding of dye to the cells for each dye, was determined by comparison of the density at λmax of the control supernatant sample with the density at λmax of the supernatant of the cell sample.

[2] = not told
Protocol: If a published reduction potential is not available, suitable techniques for measuring reduction potential are available and can be used. […] This technique involves measurement at 20° C., of an approximately 10^-4 molar solution of the dye in an electrolyte, such as methanol which is 0.05 molar in lithium chloride, using a dropping mercury electrode. The potential values are reported by reference to a silver-silver chloride electrode in a saturated solution of potassium chloride at 20° C.

[3] = Oxidation potential (Eox) of the dye; format: physicochemical; settings: Tables I, II, V, VI
Bacillus megaterium = assay: Inhibition of bacterial growth, filter paper technique; format: cell-based; settings: Table VIII; 0.2 M phenol; Tryptic Soy; 37° C./48 hrs
Protocol: (§1) Schleider and Schuell #740-E filter paper (12.7 mm diameter) was dipped in the dye solution, touched to the side of the beaker to removed excess dye, and placed in the center of the inoculated agar plates (prepared in (B) above). The plates were then incubated at 26° C. for […]. The plates were then examined to determine if bacterial growth had been affected by the dye-containing filter paper. With certain dyes bacterial growth was inhibited in a circular area around the filter paper. With other dyes no such area of inhibition was observed.
(§2) Cultures of various gram-negative and gram-positive bacteria were prepared in nutrient and Tryptic Soy Agar and plates were poured as described in Example 1. Methanolic solutions of cyanine dyes were prepared at 10^-3 molar and applied to the plates using the filter paper technique described in Example 1. Control plates were prepared in which the filter paper contained methanol or a 0.2 molar aqueous solution of phenol. The plates were then incubated at 26° C. or 37° C. for forty-eight hours.

Micrococus luteus = assay: as above; format: cell-based; settings: 48 h, read-out: Area of Inhibition (diameter), control
Protocol: as §1, §2

Enterobacter aerogenes = assay: as above; format: cell-based; settings: Table VIII; 0.2 M phenol; 37° C./48 hrs
Protocol: as §1, §2

[4] = test system: Escherichia coli, Strain B; assay: as above; format: cell-based; settings: Table VIII; 0.2 M phenol; 37° C./48 hrs
Protocol: as §1, §2

Micrococcus flavus = assay: as above; format: cell-based; settings: Micrococcus flavus, 48 h, read-out: Area of Inhibition (diameter), control
Protocol: as §1, §2

Proteus vulgaris = assay: as above; format: cell-based; settings: Table VIII; 0.2 M phenol; 37° C./48 hrs
Protocol: as §1, §2

Bacillus subtilis = assay: as above; format: cell-based; settings: 48 h, read-out: Area of Inhibition (diameter), control
Protocol: as §1, §2

Bacillus cereus = assay: as above; format: cell-based; settings: Bacillus cereus, 48 h, read-out: Area of Inhibition (diameter), control
Protocol: as §1, §2

Alcaligenes faecalis = assay: as above; format: cell-based; settings: Alcaligenes faecalis, 48 h, read-out: Area of Inhibition (diameter), control
Protocol: as §1, §2

[5] = Bacillus pumilus, K1, Table II, 10^-4 molar, 26° C., forty-eight hours
[6] = Bacillus pumilus, K1, Table IX, 10^-4 M
[7] = Bacillus pumilus, K1, 72 h, Tables V and VI, 10^-3 molar, three days
[8] = Bacillus pumilus, K1, read-out: Diameter of Inhibition
[9] = Table II, 10^-4 molar, 26° C., forty-eight hours
[10] = Bacillus pumilus, K1, Table IX, 10^-3 M

% Bound (Bacillus pumilus (K-1)) [%] | ER [2] | reduction potential (ER) [2] [volts] | Eox [3] | SMILES | Activity Rating [1] | Sea Urchin Eggs Activity (Sea Urchin Eggs) | also measured
74.9 | -1.06 | -1.06 |  | CCC(=Cc1sc2ccc(Cl)cc2[n+]1CC)C=C1Sc2ccc(Cl)cc2N1CC [Dye 15] | 04 | +4 | zone of inhibition at 100 µM [1, 5]: 13.5 mm; zone of inhibition at 100 µM [1, 6]: 13.5 mm
 | -.86 |  | +.85 | CCN1C(=CC=Cc2sc3ccc(Cl)cc3[n+]2CC)Sc2ccc(Cl)cc21 [17,5,5'-dichloro] |  |  | zone of inhibition at 1000 µM [1, 7]: 14 mm
 |  |  |  | Oc1ccccc1 [Phenol, reference compound] |  |  | Area of Inhibition (diameter), control (Bacillus megaterium): Slight; zone of inhibition at 200000 µM (Micrococus luteus): 15 mm; Area of Inhibition (diameter), control (Enterobacter aerogenes): No; Area of Inhibition (diameter), control [4]: No; zone of inhibition at 200000 µM (Micrococcus flavus): 16 mm; Area of Inhibition (diameter), control (Proteus vulgaris): No; zone of inhibition at 200000 µM (Bacillus subtilis): 13 mm; zone of inhibition at 200000 µM (Bacillus cereus): 14 mm; zone of inhibition at 200000 µM (Alcaligenes faecalis): 15 mm; zone of inhibition at 200000 µM ([1]; Bacillus pumilus, K1, 48 h, read-out: Area of Inhibition (diameter), control): 22 mm; zone of inhibition at 53000 µM [1, 8]: 18 mm; zone of inhibition at 106000 µM [1, 8]: 22 mm; zone of inhibition at 213000 µM [1, 8]: 26 mm
61.0 |  | -0.32 | > +1.00 | CC[n+]1c(C=Cc2c(-c3cccnc3)n(C)c3ccccc23)sc2cc([N+](=O)[O-])ccc21 [Dye 32] | 0 | +2 | Diameter of Inhibition [1, 9]: None; Diameter of Inhibition ([1]; Table IX, 10^-4 M): None
97.6 |  | -1.28 |  | CCN1C(=CC=Cc2oc3ccc(C)cc3[n+]2CC)Oc2ccc(C)cc21 [Dye 5] | 65 | +4 | zone of inhibition at 1000 µM [1, 10]: 27 mm
 |  | -0.63 | > +1.00 | CCN1C(=CC=Cc2sc3cc4ccccc4nc3[n+]2CC)Sc2cc3ccccc3nc21 [Dye 27] | 0 | 0 | Diameter of Inhibition [1, 9]: None; Diameter of Inhibition ([1]; Table IX, 10^-4 M): None
76.3 |  | -0.86 |  | CCN1C(=CC=Cc2sc3ccc(Cl)cc3[n+]2CC)Sc2ccc(Cl)cc21 [Dye 20] | 9 | +3 | zone of inhibition at 1000 µM [1, 10]: 14 mm
92.6 |  | -0.65 |  | Clc1ccc2nc3c(nc2c1)N(c1ccccc1)C(=CC=Cc1n(-c2ccccc2)c2nc4ccc(Cl)cc4nc2[n+]1-c1ccccc1)N3c1ccccc1 [Dye 25] |  | 0 | 
75.0 |  | -0.11 |  | Cn1c(-c2ccccc2)c(C=CC=C2C(c3ccccc3)=[N+](C)c3c2ccc2ccccc32)c2ccc3ccccc3c21 [Dye 34] | 0 | 0 | Diameter of Inhibition ([1]; Table I, 10^-4 molar, 26° C., fifty hours, dark): None; Diameter of Inhibition [1, 9]: None; Diameter of Inhibition ([1]; Table IX, 10^-4 M): None
 | -1.17 |  | +1.07 | CCN1C(=CC=Cc2oc3cc(Cl)ccc3[n+]2CC)Oc2cc(Cl)ccc21 [7,6,6'-dichloro] |  |  | zone of inhibition at 1000 µM [1, 7]: 28.5 mm
11.2 | -1.35 | -1.35 |  | CCN1C(=CC=Cc2scc(-c3ccccc3)[n+]2CC)SC=C1c1ccccc1 [Dye 3] | 29 | +5 | zone of inhibition at 100 µM ([1]; Bacillus pumilus, K1, Table I, 10^-4 molar, 26° C., fifty hours, dark): 18.5 mm; zone of inhibition at 100 µM [1, 5]: 19 mm; zone of inhibition at 100 µM [1, 6]: 19 mm
56.3 |  | -0.64 | > +1.00 | CCN1C(=CN=Nc2sc3ccccc3[n+]2CC)Sc2ccccc21 [Dye 26] | 8 | +2 | zone of inhibition at 100 µM [1, 5]: 14.5 mm; zone of inhibition at 100 µM [1, 6]: 14.5 mm
97.2 |  | -1.31 |  | CCN1C(=CC=Cc2oc3cc(OC)ccc3[n+]2CC)Oc2cc(OC)ccc21 [Dye 4] | 71 | +4 | zone of inhibition at 1000 µM [1, 10]: 28.5 mm
 | -1.31 |  | +.84 | CCN1C(=CC=Cc2oc3cc(OC)ccc3[n+]2CC)Oc2cc(OC)ccc21 [7,6,6'-dimethoxy] |  |  | zone of inhibition at 1000 µM [1, 7]: 28.5 mm
 | -1.28 |  | +.96 | CCN1C(=CC=Cc2oc3ccc(C)cc3[n+]2CC)Oc2ccc(C)cc21 [7,5,5'-dimethyl] |  |  | zone of inhibition at 1000 µM [1, 7]: 27 mm
100 |  |  |  | CCN1C(=CC=Cc2sc3cc4ccccc4cc3[n+]2CC)Sc2cc3ccccc3cc21 [Dye 19] |  | 0 | 
28.7 | -1.03 | -1.03 |  | CCN1C(=Cc2ccc3ccccc3[n+]2CC)C=Cc2ccccc21 [Dye 16] | 100 | +5 | zone of inhibition at 100 µM [1, 5]: 25.5 mm; zone of inhibition at 100 µM [1, 6]: 25.5 mm
 | -1.26 |  | +1.00 | CCN1C(=CC=Cc2oc3cc(S(=O)(=O)[O-])ccc3[n+]2CC)Oc2cc(S(=O)(=O)O)ccc21 [7,6,6'-disulfo] |  |  | Diameter of Inhibition ([1]; Tables V and VI, 10^-3 molar, three days): None
54.2 |  | -0.41 | > +1.00 | Cn1c(-c2ccccc2)c(C=Cc2sc3cc([N+](=O)[O-])c(Cl)cc3[n+]2C)c2ccccc21 [Dye 31] | 0 | 0 | Diameter of Inhibition [1, 9]: None; Diameter of Inhibition ([1]; Table IX, 10^-4 M): None
31.8 | -1.60 | -1.60 |  | CCN1C(=Cc2sc3ccc4ccccc4c3[n+]2CC)Sc2ccc3ccccc3c21 [Dye 2] | 0 |  | Diameter of Inhibition [1, 9]: None; Diameter of Inhibition ([1]; Table IX, 10^-3 M): None; Diameter of Inhibition ([1]; Table IX, 10^-4 M): None
